Source: patent US20120196324A1, “Method for Producing an Antifungal Peptide in a Filamentous Fungal Host Cell” (NOVOZYMES A/S, priority 2007, published 2012)

Assays:
[1] = test system: Aspergillus oryzae BECh2; experiment: Tolerance to ETD151: growth in YCM with ETD151; type: cell-based; settings: YCM with different amounts of ETD151 (maximum 5815 mg/L), 6 days
Description: (§1) Selected strains were subjected to YCM with 0-5815 mg/L ETD151 for 6 days in order to test tolerance to ETD151.
(§2) To test the tolerance to ETD151, ToC1512, BECh2 and the 7 gcs^− mutants were grown in YCM with different amounts of ETD151 (maximum 5815 mg/L). […] One of the gcs^− mutants (no. 18) was hereafter selected and named PtSL1.

[2] = test system: Aspergillus oryzae ToC1512; experiment: Tolerance to ETD151: growth in YCM with ETD151; type: cell-based; settings: YCM with different amounts of ETD151 (maximum 5815 mg/L), 6 days
Description: as §1, §2

[3] = test system: gcs- mutants of A. oryzae ToC1512; experiment: Tolerance to ETD151: growth in YCM with ETD151; type: cell-based, Aspergillus oryzae; settings: high concentrations of ETD151 (maximum 5815 mg/L), 6 days, 7 gcs- mutants
Description: as §1, §2

[4] = test system: Candida utilis; experiment: Bioassay (plate assay, growth inhibition seen as clearing zones); type: cell-based; settings: ETD151 expressed by BECh2 transformants (pPtSL4); Candida utilis as target organism
Description: ETD151 was diluted to 58 μg/ml in peptide dilution buffer (0.1% BSA, 0.01% Acetic Acid) and further on to 6 μg/ml and 0.6 μg/ml and used as control. Candida utilis was grown on YPD plates, A. oryzae on Cove N medium slants. An inoculum of fungal growth was resuspended in 0.1% Tween to an optical density of approx. 1 McFarland Unit. A NUNC-tube with 15 ml ⅓ PD agarose at approx. 42° C. was inoculated with approx. 6×10^6 CFU, mixed thoroughly and poured into a sterile 9 cm square dish (Falcon 351112) on a levelling table and allowed to solidify and set for 30 minutes. Ten μl of each of the peptide dilutions was added to the surface of the plate. The plates were incubated at 30° C. (or 37° C. as appropriate). The next day, growth was detected either by observing the inhibition zones by oblique illumination (or by adding 3 ml of a 3 mM MTT solution and leaving the plate for 1-2 hours at room temperature).
BECh2 was transformed with plasmid pPtSL4 and subjected to amdS medium. amdS resistant colonies were isolated as spores from single sporangies and subjected to amdS medium twice. From 45 BECh2 transformants, 43 were subjected to a Bioassay as described using Candida utilis as target organism and to SDS gel electrophoresis.

[5] = test system: Pichia pastoris gcs-deletion mutants; settings: glucosylceramide synthetase deficient Pichia pastoris; cited from earlier work
[6] = test system: Candida albicans gcs-deletion mutants; settings: glucosylceramide synthetase deficient Candida albicans; cited from earlier work

ETD151: heliomycin derivative, antifungal defensin peptide shown in SEQ ID NO: 7, expressed in Aspergillus oryzae (DKLIGSCVWGAVNYTSNCRAECKRRGYKGGHCGSFANVNCWCET; heliomycin derivative)
growth of strain in presence of ETD151 [1]: grew badly
growth of strain in presence of ETD151 [2]: did not grow at all
growth of strain in presence of ETD151 [3]: grew very well
growth inhibition in plate Bioassay [4]: clearing zones

RsAFP2: antifungal defensin (QKLCQRPSGTWSGVCGNNNACKNQCIRLEKARHGSCNYVFPAHKCICYFPC; UniProt P30230 30-80, looked up)
susceptibility of gcs-deletion mutants [5]: resistant
susceptibility of gcs-deletion mutants [6]: resistant
